Structures can show the parent of a compound that is named as a salt.
Columns and labels:
[1] = Precipitation studies with sertraline base in 0.1N HCl and phosphate buffered saline pH 5.8 (Example 4)
Experimental: Solution (a) is a simulated gastric fluid, and solution (b) is a simulated intestinal fluid.
PEG400 is miscible with aqueous media, while Capmul®-MCM and safflower oil are not. One milliliter of the test solution was added to 10 mL of (a) 0.1N HCl solution and (b) phosphate buffered saline (PBS) pH 5.8 and was stirred vigorously.
Mobile phase: per liter of mobile phase: 270 mL of tetrahydrofuran, 230 mL of methanol and 400 mL of buffer. The buffer consisted of 25 mM triethylamine phosphate. It was prepared by adding 1.7 mL of phosphoric acid and 3.5 mL of tirethylamine to 1 liter of water.

[2] = Equilibrium solubility of sertraline base and hydrochloride in selected vehicles (Table 4-4); assay type: physicochemical; details: vehicle Miglyol 810
From the text: Water-immiscible vehicles do have this capacity.

[3] = Dilution of PEG-400 or polysorbate-80 solution of sertraline base into 0.9% NaCl (Example 3); assay type: physicochemical
Experimental: One ml of this test solution was added to 15 ml normal saline (0.9% NaCl, pH 4.2), and was stirred vigorously.

physchem = details: simulated gastric fluid
[4] = Chloride-induced gelling of sertraline salt solutions; assay type: physicochemical
[5] = Human crossover pharmacokinetics of 200 mg sertraline delivered to various portions of the gastrointestinal tract (Example 1); assay type: in vivo; details: Group A
Experimental: Dosing was via (1) oral tablets, or (2) infusion of a solution through a nasoenteric tube into the stomach, duodenum, or ileocecal region of the small intestine, or (3) infusion into the transverse colon via anal intubation.
The infusions were administered as a 2 mg/ml solution at a rate of 20 ml/min for 5 min.
Analysis was carried out by capillary gas chromatography with electron capture detection. […] Tmax is the time at which Cmax is achieved.

[6] = dosed as Zoloft tablets; cited from earlier work
[7] = human, in vivo
clinical = details: human, in vivo, po
[8] = in water; cited from earlier work

CN[C@H]1CC[C@@H](c2ccc(Cl)c(Cl)c2)c2ccccc21 [Free base, sertraline free base]
Concentration of sertraline in aqueous layer ([1]; Capmul MCM 50 mgA/mL, 1 mL into 10 mL phosphate buffered saline pH 5.8, 120 minutes): 0.16 mgA/mL | Concentration of sertraline in aqueous layer ([1]; Safflower oil 50 mgA/mL, 1 mL into 10 mL 0.1 N HCl, 120 minutes): 0.48 mgA/mL | Concentration of sertraline in aqueous layer ([1]; Safflower oil 50 mgA/mL, 1 mL into 10 mL phosphate buffered saline pH 5.8, 120 minutes): 0.19 mgA/mL | Precipitation of sertraline ([1]; solution in safflower oil added to phosphate buffered saline): little or no precipitation | Equilibrium solubility in Miglyol 810 [2]: >50 mgA/ml | Observed Concentration after Dilution in Saline after 2 hr ([3]; vehicle Polysorbate-80, 50 mgA/ml in vehicle, 1 ml into 15 ml 0.9% NaCl): 3.1 mgA/ml

CN[C@H]1CC[C@@H](c2ccc(Cl)c(Cl)c2)c2ccccc21 [Hydrochloride, sertraline hydrochloride]
Equilibrium solubility in Miglyol 810 ([2]; hydrochloride): greater than 0.1 mgA/ml | solubility (physchem): ~3000 µg/mL

CN[C@H]1CC[C@@H](c2ccc(Cl)c(Cl)c2)c2ccccc21 [Lactate, sertraline lactate]
State of saturated solution at physiological chloride concentrations [4]: thick pasty solid which does not flow

CN[C@H]1CC[C@@H](c2ccc(Cl)c(Cl)c2)c2ccccc21 [sertraline]
AUCO-LAST ([5]; Ileocecal Infusion of solution): 727.1 ng·h/mL | AUCO-LAST ([5]; Oral Tablet (two 100 mg Zoloft tablets)): 1174.5 ng·h/mL | AUCO-LAST ([5]; Stomach Infusion of solution): 923.1 ng·h/mL | Precipitation of sertraline ([1]; PEG 400 solution added into either 0.1 N HCl or phosphate buffered saline): precipitation of a large proportion of sertraline | Portion of sertraline remaining in solution ([1]; vehicle Capmul-MCM, 0.1 N HCl or phosphate buffered saline): > 95 % of added amount | Absolute oral bioavailability [6]: 54% | Intrinsic absorption rate constant (ARC) [7]: greater than 0.025 min^−1 | Precipitation upon addition to a NaCl solution ([3]; PEG400 solution of sertraline): a portion of the sertraline precipitates | Precipitation upon addition to a NaCl solution ([3]; Polysorbate-80 solution of sertraline): no precipitation occurs | Tmax (clinical): < 1.5 h

sertraline acetate
State of saturated solution at physiological chloride concentrations [4]: thick pasty solid which does not flow

vitamin E
Aqueous solubility [8]: practically insoluble in water
